# Measured values reported in ChEMBL document CHEMBL1201862, “PubChem BioAssay data set” (2004).
#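 Exposure lasted 48 hours, with cells grown in 96-well plates and compounds tested at five concentrations. Abbreviation: GI50, concentration required for 50% inhibition of growth.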 Active and inactive are the calls of the source. Rule as the data show it: active = GI50 up to about 1.1 µM and inactive = higher.
# Experiments:
# Test in all cases: DTP human tumour cell line panel, 48 h
# 786-0 = test system: 786-0
# A498 = test system: A498
# A549 = test system: A549
# ACHN = test system: ACHN
# BT-549 = test system: BT-549
# CAKI-1 = test system: CAKI-1
# CCRF-CEM = test system: CCRF-CEM
# COLO 205 = test system: COLO 205
# DU-145 = test system: DU-145
# EKVX = test system: EKVX
# HCC 2998 = test system: HCC 2998
# HCT-116 = test system: HCT-116
# HCT-15 = test system: HCT-15
# HL-60 = test system: HL-60
# HOP-62 = test system: HOP-62
# HOP-92 = test system: HOP-92
# HT-29 = test system: HT-29
# Hs-578T = test system: Hs-578T
# IGROV-1 = test system: IGROV-1
# K562 = test system: K562
# KM12 = test system: KM12
# LOX IMVI = test system: LOX IMVI
# MCF7 = test system: MCF7
# MDA-MB-231 = test system: MDA-MB-231
# MDA-MB-435 = test system: MDA-MB-435
# MDA-N = test system: MDA-N
# MOLT-4 = test system: MOLT-4
# Malme-3M = test system: Malme-3M
# NCI-H226 = test system: NCI-H226
# NCI-H23 = test system: NCI-H23
# NCI-H460 = test system: NCI-H460
# NCI-H522 = test system: NCI-H522
# NCI/ADR-RES = test system: NCI/ADR-RES
# OVCAR-3 = test system: OVCAR-3
# OVCAR-4 = test system: OVCAR-4
# OVCAR-5 = test system: OVCAR-5
# OVCAR-8 = test system: OVCAR-8
# PC-3 = test system: PC-3
# RPMI-8226 = test system: RPMI-8226
# RXF 393 = test system: RXF 393
# SF-268 = test system: SF-268
# SF-295 = test system: SF-295
# SF-539 = test system: SF-539
# SK-MEL-28 = test system: SK-MEL-28
# SK-MEL-2 = test system: SK-MEL-2
# SK-MEL-5 = test system: SK-MEL-5
# SN12C = test system: SN12C
# SNB-75 = test system: SNB-75
# SR = test system: SR
# SW-620 = test system: SW-620
# T47D = test system: T47D
# TK-10 = test system: TK-10
# U-251 = test system: U-251
# UACC-257 = test system: UACC-257
# UACC-62 = test system: UACC-62
# UO-31 = test system: UO-31
# M14 = test system: M14
# SK-OV-3 = test system: SK-OV-3
# SNB-19 = test system: SNB-19
compound,measurement,setting,value
O=[N+]([O-])c1cc2c(c([N+](=O)[O-])c1)NCc1ccccc1O2,GI50,786-0,43.4 µM (inactive)
same,GI50,A498,> 100 µM (inactive)
same,GI50,A549,> 100 µM (inactive)
same,GI50,ACHN,> 100 µM (inactive)
same,GI50,BT-549,> 100 µM (inactive)
same,GI50,CAKI-1,14.9 µM (inactive)
same,GI50,CCRF-CEM,24.3 µM (inactive)
same,GI50,COLO 205,> 100 µM (inactive)
same,GI50,DU-145,> 100 µM (inactive)
same,GI50,EKVX,> 100 µM (inactive)
same,GI50,HCC 2998,> 100 µM (inactive)
same,GI50,HCT-116,> 100 µM (inactive)
same,GI50,HCT-15,> 100 µM
same,GI50,HL-60,> 100 µM (inactive)
same,GI50,HOP-62,30.8 µM (inactive)
same,GI50,HOP-92,> 100 µM (inactive)
same,GI50,HT-29,> 100 µM (inactive)
same,GI50,Hs-578T,70.8 µM (inactive)
same,GI50,IGROV-1,> 100 µM (inactive)
same,GI50,K562,> 10 µM (inactive)
same,GI50,KM12,> 100 µM (inactive)
same,GI50,LOX IMVI,> 100 µM (inactive)
same,GI50,MCF7,> 100 µM (inactive)
same,GI50,MDA-MB-231,> 100 µM (inactive)
same,GI50,MDA-MB-435,> 100 µM (inactive)
same,GI50,MDA-N,> 100 µM (inactive)
same,GI50,MOLT-4,59.2 µM (inactive)
same,GI50,Malme-3M,> 100 µM (inactive)
same,GI50,NCI-H226,> 100 µM (inactive)
same,GI50,NCI-H23,> 100 µM (inactive)
same,GI50,NCI-H460,> 100 µM (inactive)
same,GI50,NCI-H522,> 100 µM (inactive)
same,GI50,NCI/ADR-RES,> 100 µM (inactive)
same,GI50,OVCAR-3,> 100 µM (inactive)
same,GI50,OVCAR-4,70.5 µM (inactive)
same,GI50,OVCAR-5,> 100 µM (inactive)
same,GI50,OVCAR-8,71.1 µM (inactive)
same,GI50,PC-3,> 100 µM (inactive)
same,GI50,RPMI-8226,> 100 µM (inactive)
same,GI50,RXF 393,16 µM (inactive)
same,GI50,SF-268,> 100 µM (inactive)
same,GI50,SF-295,> 100 µM (inactive)
same,GI50,SF-539,69.3 µM (inactive)
same,GI50,SK-MEL-28,> 100 µM (inactive)
same,GI50,SK-MEL-2,76.6 µM (inactive)
same,GI50,SK-MEL-5,> 100 µM (inactive)
same,GI50,SN12C,> 100 µM (inactive)
same,GI50,SNB-75,12.9 µM (inactive)
same,GI50,SR,55.5 µM (inactive)
same,GI50,SW-620,> 100 µM (inactive)
same,GI50,T47D,> 100 µM (inactive)
same,GI50,TK-10,> 100 µM (inactive)
same,GI50,U-251,41.2 µM (inactive)
same,GI50,UACC-257,> 100 µM (inactive)
same,GI50,UACC-62,> 100 µM (inactive)
same,GI50,UO-31,> 100 µM (inactive)
COC1=CC(=O)C2=C(C1=O)[C@H]1CC[C@]3(C)[C@@H](O)CC[C@H]3[C@@H]1CC2,GI50,786-0,19.5 µM (inactive)
same,GI50,A498,52.8 µM (inactive)
same,GI50,A549,18.4 µM (inactive)
same,GI50,ACHN,18 µM (inactive)
same,GI50,BT-549,17.9 µM (inactive)
same,GI50,CAKI-1,25 µM (inactive)
same,GI50,CCRF-CEM,6.67 µM (inactive)
same,GI50,COLO 205,10.7 µM (inactive)
same,GI50,DU-145,17.2 µM (inactive)
same,GI50,EKVX,16.8 µM (inactive)
same,GI50,HCC 2998,20.7 µM (inactive)
same,GI50,HCT-116,17 µM (inactive)
same,GI50,HCT-15,18 µM
same,GI50,HL-60,13 µM (inactive)
same,GI50,HOP-62,16.2 µM (inactive)
same,GI50,HOP-92,21.6 µM (inactive)
same,GI50,HT-29,4.71 µM (inactive)
same,GI50,Hs-578T,19.9 µM (inactive)
same,GI50,IGROV-1,21.9 µM (inactive)
same,GI50,K562,28.9 µM (inactive)
same,GI50,KM12,18.4 µM (inactive)
same,GI50,LOX IMVI,19.8 µM (inactive)
same,GI50,M14,17.5 µM (inactive)
same,GI50,MCF7,17 µM (inactive)
same,GI50,MDA-MB-231,2.21 µM (inactive)
same,GI50,MDA-MB-435,17.9 µM (inactive)
same,GI50,MDA-N,17.5 µM (inactive)
same,GI50,MOLT-4,3.48 µM (inactive)
same,GI50,NCI-H226,17.7 µM (inactive)
same,GI50,NCI-H23,23.7 µM (inactive)
same,GI50,NCI-H460,18.3 µM (inactive)
same,GI50,NCI-H522,17.9 µM (inactive)
same,GI50,NCI/ADR-RES,27.5 µM (inactive)
same,GI50,OVCAR-3,17.9 µM (inactive)
same,GI50,OVCAR-4,17.2 µM (inactive)
same,GI50,OVCAR-5,19.2 µM (inactive)
same,GI50,OVCAR-8,17.8 µM (inactive)
same,GI50,PC-3,16.4 µM (inactive)
same,GI50,RPMI-8226,19.3 µM (inactive)
same,GI50,RXF 393,20.8 µM (inactive)
same,GI50,SF-268,17.3 µM (inactive)
same,GI50,SF-295,16.7 µM (inactive)
same,GI50,SF-539,16.9 µM (inactive)
same,GI50,SK-MEL-28,18.9 µM (inactive)
same,GI50,SK-MEL-2,13.9 µM (inactive)
same,GI50,SK-MEL-5,15.5 µM (inactive)
same,GI50,SK-OV-3,45 µM (inactive)
same,GI50,SN12C,17 µM (inactive)
same,GI50,SNB-19,24.4 µM (inactive)
same,GI50,SNB-75,17.9 µM (inactive)
same,GI50,SR,23.3 µM (inactive)
same,GI50,SW-620,32.7 µM (inactive)
same,GI50,T47D,13.8 µM (inactive)
same,GI50,TK-10,27.9 µM (inactive)
same,GI50,U-251,17 µM (inactive)
same,GI50,UACC-257,16.4 µM (inactive)
same,GI50,UACC-62,17.5 µM (inactive)
same,GI50,UO-31,20.7 µM (inactive)
